Test results: patent US20100324137A1, “LAURIC ARGINATE AS A CONTACT ANTIMICROBIAL” (DIVERSEY, INC., priority 2009, published 2010)
Several values for one entry are separate records, joined by “and”; a condition that tells them apart may be missing. Identical values can stand only once.

Test system: E. coli
Test: Antimicrobial effectiveness: E. coli contacted with sample for 30 seconds, survivors calculated
Format: cell-based
Details: 30 seconds contact
Procedure: The antimicrobial effectiveness of the present invention in combination with octenyl succinic acid was tested. In this application, the test organism was E. coli, which was contacted with either the control or the stated sample for 30 seconds, and the survivors were calculated.

Row | Compound | Percent Reduction (25 ppm active) | Survivors (25 ppm active) | Percent Reduction (50 ppm active) | Percent Reduction (75 ppm active) | Survivors (75 ppm active) | Percent Reduction (160 ppm active) | Survivors (160 ppm active) | Percent Reduction (320 ppm active) | Survivors (320 ppm active) | Percent Reduction (480 ppm active) | Survivors (480 ppm active)
1 | CCCCCCCCCCCC(=O)N[C@@H](CCCN=C(N)N)C(=O)OCC [LA, ethyl lauroyl arginate] | 96.494% and 96.299% | 5,400,000 org/ml and 5,700,000 org/ml | 99.851% and 99.926% | 99.979% and 99.975% | 33,000 org/ml and 39,000 org/ml | – | – | – | – | – | –
2 | octenyl succinic acid [OSA] | – | – | – | – | – | 84.351% and 84.805% | 24,100,000 org/ml and 23,400,000 org/ml | 99.999% | 2,000 org/ml and 2,200 org/ml | 99.999% | 1,900 org/ml and 1,920 org/ml
